Values of other authors in patent US5872104A, “Combinations and methods for reducing antimicrobial resistance” (Oridigm Corporation, priority 1994, dated 1999).
In brackets after ≈: the same amount, converted by molar mass. Several values for one entry are separate records, joined by “and”; a condition that tells them apart may be missing. Equal values may be shown once. Read-outs that look alike come from different tables or passages of the source.

Legend:
[1] = in vivo; cited from earlier work
[2] = test system: Staphylococcus aureus, methicillin susceptible; conditions: in µg/mL; cited from earlier work
[3] = test system: Streptococcus agalactactiae (group B); conditions: in µg/mL; cited from earlier work
[4] = test system: Bordetella bronchiseptica; conditions: cited from earlier work
Moraxella catarrhalis = conditions: in µg/mL; cited from earlier work
Mycoplasma pneumoniae [5] = conditions: in µg/mL; cited from earlier work
Viridans streptococci = conditions: cited from earlier work
[6] = test system: Neisseria gonorrhoeae (non β-lactamase producer); conditions: cited from earlier work
Clostridium perfringens = conditions: anaerobes; in µg/mL; cited from earlier work
Legionella pneumophila = conditions: in µg/mL; cited from earlier work
Staphylococcus hominis = conditions: cited from earlier work
S. aureus = conditions: agar disc susceptibility test; cited from earlier work
Enterococcus spp. = conditions: cited from earlier work
Streptococcus pneumoniae = conditions: in µg/mL; cited from earlier work
Legionella spp. = conditions: cited from earlier work
Enterococcus faecium = conditions: cited from earlier work
[7] = test system: Chlamydia pneumoniae (formerly TWAR); conditions: in µg/mL; cited from earlier work
Haemophilus ducreyi = conditions: cited from earlier work
[8] = test system: Staphylococcus coagulase .phi. (β-lactamase producer); conditions: cited from earlier work
[9] = test system: Staphylococcus haemolyticus; conditions: cited from earlier work
Streptococcus spp. = conditions: cited from earlier work
Bacteroides fragilis [10] = conditions: cited from earlier work
[11] = test system: Haemophilus influenzae (penicillin resistant); conditions: cited from earlier work
Campylobacter pylori = conditions: cited from earlier work
Ureaplasma urealyticum = conditions: cited from earlier work
[12] = test system: Branhamella (Moraxella) catarrhalis; conditions: cited from earlier work
[13] = test system: Streptococcus pyogenes (group A), erythromycin susceptible; conditions: cited from earlier work
Borrelia burgdorferi = conditions: cited from earlier work
Listeria monocytogenes [14] = conditions: in µg/mL; cited from earlier work
Mycoplasma pneumoniae [15] = conditions: cited from earlier work
[16] = test system: Staphylococcus coagulase .phi. (non β-lactamase producer); conditions: cited from earlier work
Campylobacter jejuni = conditions: in µg/mL; cited from earlier work
[17] = test system: Staphylococcus epidermidis; conditions: cited from earlier work
Bacteroides fragilis [18] = conditions: anaerobes; in µg/mL; cited from earlier work
Neisseria gonorrhoeae [19] = conditions: cited from earlier work
[20] = test system: Staphylococcus aureus (methicillin susceptible); conditions: in µg/mL; cited from earlier work
Corynebacterium JK = conditions: cited from earlier work
Chlamydia trachomatis = conditions: in µg/mL; cited from earlier work
Bordetella pertussis [21] = conditions: in µg/mL; cited from earlier work
Staphylococcus aureus = conditions: cited from earlier work
[22] = test system: Staphylococcus coagulase .phi.; conditions: cited from earlier work
N. meningitidis = conditions: in µg/mL; cited from earlier work
Neisseria gonorrhoeae [23] = conditions: in µg/mL; cited from earlier work
Bacillus spp. = conditions: cited from earlier work
[24] = test system: Staphylococcus aureus (penicillin susceptible); conditions: cited from earlier work
Bordetella parapertussis = conditions: cited from earlier work
Listeria monocytogenes [25] = conditions: in µg/mL; cited from earlier work; remark: listed apart in the source
Bordetella pertussis [26] = conditions: cited from earlier work
Nocardia asteroides = conditions: cited from earlier work
[27] = test system: Haemophilus influenzae (penicillin susceptible); conditions: cited from earlier work
Neisseria meningitidis = conditions: cited from earlier work
Haemophilus influenzae = conditions: cited from earlier work
[28] = test system: Staphylococcus aureus (penicillin resistant); conditions: cited from earlier work
[29] = test system: Haemophilus parainfluenzae; conditions: cited from earlier work
Streptococcus pyogenes = conditions: cited from earlier work
Streptococcus agalactiae = conditions: cited from earlier work

SMILES: CC[C@H]1OC(=O)[C@H](C)[C@@H](O[C@H]2C[C@@](C)(OC)[C@@H](O)[C@H](C)O2)[C@H](C)[C@@H](O[C@@H]2O[C@H](C)C[C@H](N(C)C)[C@H]2O)[C@](C)(O)C[C@@H](C)C(=O)[C@H](C)[C@@H](O)[C@]1(C)O [Erythromycin]
- clinical safety [1]: one of the safest antibiotics in current clinical use
- MIC90 [2]: 0.25-0.50
- MIC90 [3]: 0.03-0.25
- MIC50 [4]: 8 µg/mL (≈ 10.9 µM)
- MIC90 [4]: 32 µg/mL (≈ 43.6 µM)
- Range [4]: 4-32
- MIC90 (Moraxella catarrhalis): 0.25-2.0
- MIC90 (Mycoplasma pneumoniae [5]): 0.004
- MIC90 (Viridans streptococci): 0.06 µg/mL (≈ 0.0818 µM)
- Range [6]: 0.015-4 and 0.03-2
- MIC90 (Clostridium perfringens): 1.0
- MIC90 (Legionella pneumophila): 1.0-2.0
- MIC50 (Staphylococcus hominis): ≥ 64 µg/mL
- MIC90 (Staphylococcus hominis): ≥ 64 µg/mL
- MIC90 (S. aureus): about 4 μg/ml
- MIC50 (Enterococcus spp.): 2 µg/mL (≈ 2.73 µM)
- MIC90 (Enterococcus spp.): ≥ 32 µg/mL
- MIC90 (Streptococcus pneumoniae): 0.03-1.0
- MIC90 (Legionella spp.): 0.25 µg/mL (≈ 0.341 µM)
- MIC50 (Enterococcus faecium): 1 µg/mL (≈ 1.36 µM)
- MIC90 (Enterococcus faecium): ≥ 64 µg/mL
- MIC90 [7]: 0.065-1.0
- MIC50 (Haemophilus ducreyi): 0.004 µg/mL (≈ 0.00545 µM)
- MIC90 (Haemophilus ducreyi): 0.06 µg/mL (≈ 0.0818 µM)
- MIC90 [8]: 4 µg/mL (≈ 5.45 µM)
- Range [8]: 0.06-16
- MIC50 [9]: ≥ 64 µg/mL
- MIC90 [9]: ≥ 64 µg/mL
- MIC50 (Streptococcus spp.): 0.03 µg/mL (≈ 0.0409 µM)
- MIC90 (Streptococcus spp.): 1 µg/mL (≈ 1.36 µM)
- MIC50 (Bacteroides fragilis [10]): 1 µg/mL (≈ 1.36 µM)
- MIC90 (Bacteroides fragilis [10]): 8 µg/mL (≈ 10.9 µM)
- Range (Bacteroides fragilis [10]): ≤0.25-16
- MIC50 [11]: 8 µg/mL (≈ 10.9 µM)
- MIC90 [11]: 16 µg/mL (≈ 21.8 µM)
- Range [11]: 8-16
- MIC50 (Campylobacter pylori): 0.5 µg/mL (≈ 0.681 µM)
- Range (Campylobacter pylori): 0.25-16
- MIC90 (Ureaplasma urealyticum): 32 µg/mL (≈ 43.6 µM)
- MIC50 [12]: 0.25 µg/mL (≈ 0.341 µM)
- MIC90 [13]: 0.03 µg/mL (≈ 0.0409 µM)
- MIC50 (Borrelia burgdorferi): 0.03 µg/mL (≈ 0.0409 µM)
- MIC90 (Borrelia burgdorferi): 0.06 µg/mL (≈ 0.0818 µM)
- MIC90 (Listeria monocytogenes [14]): 0.5-2.0
- MIC90 (Mycoplasma pneumoniae [15]): ≤ 0.004 µg/mL
- MIC90 [16]: 0.25 µg/mL (≈ 0.341 µM)
- Range [16]: 0.03-8
- MIC90 (Campylobacter jejuni): 4 and 2
- MIC50 [17]: ≥ 64 µg/mL
- MIC90 [17]: ≥ 64 µg/mL
- MIC90 (Bacteroides fragilis [18]): 4.0-32.0
- MIC50 (Neisseria gonorrhoeae [19]): 0.25 µg/mL (≈ 0.341 µM)
- MIC90 (Neisseria gonorrhoeae [19]): 1 µg/mL (≈ 1.36 µM)
- Range (Neisseria gonorrhoeae [19]): 0.0075-8
- MIC50 [20]: 0.25 and 0.5
- MIC50 (Corynebacterium JK): 2 µg/mL (≈ 2.73 µM)
- MIC90 (Corynebacterium JK): ≥ 64 µg/mL
- MIC90 (Chlamydia trachomatis): 0.12-0.25
- MIC90 (Bordetella pertussis [21]): 0.3-1.6
- MIC50 (Staphylococcus aureus): 0.5 µg/mL (≈ 0.681 µM)
- MIC50 [22]: 0.25 µg/mL (≈ 0.341 µM)
- MIC90 (N. meningitidis): 0.4-1.6
- MIC90 (Neisseria gonorrhoeae [23]): 0.25-2.0
- MIC50 (Bacillus spp.): 0.25 µg/mL (≈ 0.341 µM)
- MIC90 (Bacillus spp.): 2 µg/mL (≈ 2.73 µM)
- Range (Bacillus spp.): 0.03-2
- MIC90 [24]: 0.5 µg/mL (≈ 0.681 µM)
- MIC50 ([24]; in µg/mL): 0.5 and 0.25
- MIC50 (Bordetella parapertussis): 0.25 µg/mL (≈ 0.341 µM)
- MIC90 (Bordetella parapertussis): 0.25 µg/mL (≈ 0.341 µM)
- MIC50 (Listeria monocytogenes [25]): 0.5 and 0.25
- MIC50 (Bordetella pertussis [26]): 0.25 µg/mL (≈ 0.341 µM)
- MIC50 (Nocardia asteroides): ≥ 8 µg/mL
- MIC90 (Nocardia asteroides): ≥ 8 µg/mL
- MIC50 [27]: 8 µg/mL (≈ 10.9 µM)
- MIC90 [27]: 16 µg/mL (≈ 21.8 µM)
- Range [27]: 0.25-16
- MIC50 (Neisseria meningitidis): 1 µg/mL (≈ 1.36 µM)
- MIC90 (Neisseria meningitidis): 8 µg/mL (≈ 10.9 µM)
- Range (Neisseria meningitidis): 0.5-8
- Range (Haemophilus influenzae): 0.5-8
- MIC50 (Haemophilus influenzae; in µg/mL): 2 and 1
- MIC50 [28]: 0.25 µg/mL (≈ 0.341 µM)
- MIC90 [28]: ≥ 32 µg/mL
- MIC50 [29]: 2 µg/mL (≈ 2.73 µM)
- MIC90 [29]: 4 µg/mL (≈ 5.45 µM)
- Range [29]: 0.5-8
- MIC50 (Streptococcus pyogenes): 0.06 µg/mL (≈ 0.0818 µM)
- MIC50 (Streptococcus agalactiae): 0.03 µg/mL (≈ 0.0409 µM)
- Range (Streptococcus agalactiae): 0.03-0.25
